# Assays:
# cathepsin K = molecular target: T1, cathepsin K (Homo sapiens, UniProt P43235); assay: Determination of cathepsin K proteolytic catalytic activity / inhibition studies (progress curve method, Cbz-Phe-Arg-AMC); assay type: biochemical; details: human recombinant enzyme, 100 mM Na acetate pH 5.5, 20 μM substrate, 10% DMSO
# T1 sequence (P43235 115-329): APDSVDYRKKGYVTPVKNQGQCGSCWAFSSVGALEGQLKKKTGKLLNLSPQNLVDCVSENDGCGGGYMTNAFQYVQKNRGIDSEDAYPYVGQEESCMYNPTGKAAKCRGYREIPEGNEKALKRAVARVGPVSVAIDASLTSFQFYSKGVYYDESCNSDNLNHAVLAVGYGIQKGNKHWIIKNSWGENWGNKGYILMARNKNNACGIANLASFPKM
# Experimental: Determination of Cathepsin K Proteolytic Catalytic Activity
# All assays for cathepsin K were carried out with human recombinant enzyme. Standard assay conditions for the determination of kinetic constants used a fluorogenic peptide substrate, typically Cbz-Phe-Arg-AMC, and were determined in 100 mM Na acetate at pH 5.5 containing 20 mM cysteine and 5 mM EDTA. Stock substrate solutions were prepared at concentrations of 10 or 20 mM in DMSO with 20 μM final substrate concentration in the assays. All assays contained 10% DMSO. […] All assays were conducted at ambient temperature. Product fluorescence (excitation at 360 nm; emission at 460 nm) was monitored with a Perceptive Biosystems Cytofluor II fluorescent plate reader. […]
# Potential inhibitors were evaluated using the progress curve method. […] For those compounds whose progress curves were linear, apparent inhibition constants (Ki,app) were calculated according to equation 1 (Brandt et al., Biochemitsry, 1989, 28, 140): […]
# [AMC]=vsst+(v0−vss)[[…]]/kobs (2) where [AMC] is the concentration of product formed over time t, v0 is the initial reaction velocity, and vss is the final steady state rate. Values for kobs were then analyzed as a linear function of inhibitor concentration to generate an apparent second order rate constant (kobs/inhibitor concentration or kobs/[I]) describing the time-dependent inhibition. […]
# [1] = test system: osteoclasts (osteoclastoma-derived cell suspensions); assay: Human osteoclast resorption assay (pit assay on dentine slices); assay type: cell-based; details: 48 hours, pit volumes
# Experimental: Human Osteoclast Resorption Assay
# Aliquots of osteoclastoma-derived cell suspensions were removed from liquid nitrogen storage, warmed rapidly at 37° C. and washed ×1 in RPMI-1640 medium by centrifugation (1000 rpm, 5 min at 4° C.). The medium was aspirated and replaced with murine anti-HLA-DR antibody, diluted 1:3 in RPMI-1640 medium, and incubated for 30 minutes on ice. The cell suspension was mixed frequently.
# The cells were washed ×2 with cold RPMI-1640 by centrifugation (1000 rpm, 5 min at 4° C.) and then transferred to a sterile 15 mL centrifuge tube. The number of mononuclear cells were enumerated in an improved Neubauer counting chamber.
# Sufficient magnetic beads (5/mononuclear cell), coated with goat anti-mouse IgG, were removed from their stock bottle and placed into 5 mL of fresh medium (this washes away the toxic azide preservative). The medium was removed by immobilizing the beads on a magnet and is replaced with fresh medium.
# The beads were mixed with the cells and the suspension was incubated for 30 minutes on ice. The suspension was mixed frequently. […]
# The TRAP positive osteoclasts were enumerated by bright-field microscopy and were then removed from the surface of the dentine by sonication. Pit volumes were determined using the Nikon/Lasertec ILM21W confocal microscope.
smiles,measurement,setting,value
"CC(C)C[C@H](NC(=O)c1ccc2ccccc2n1)C(=O)NC1CCCN(S(=O)(=O)c2cccc[n+]2[O-])CC1=O (stereo partly drawn) [Example 1, Quinoline-2-carboxylic acid {(S)-3-methyl-1-[3-oxo-1-(1-oxy-pyridine-2-sulfonyl)-azepan-4-ylcarbamoyl]-butyl}amide]",Ki,cathepsin K,0.41 nM
same,IC50,[1],300 nM
